We go through three compounds from patent US11572399B2, “Long-acting GIP peptide analogues” (University of Copenhagen, priority 2017, dated 2023).

The target of one data set is T1, human GIP receptor (Homo sapiens, UniProt P48546).
T1 construct: host or cells: COS-7, transient transfection (calcium phosphate), cDNA in pCMV-Script
T1 sequence (P48546 22-466): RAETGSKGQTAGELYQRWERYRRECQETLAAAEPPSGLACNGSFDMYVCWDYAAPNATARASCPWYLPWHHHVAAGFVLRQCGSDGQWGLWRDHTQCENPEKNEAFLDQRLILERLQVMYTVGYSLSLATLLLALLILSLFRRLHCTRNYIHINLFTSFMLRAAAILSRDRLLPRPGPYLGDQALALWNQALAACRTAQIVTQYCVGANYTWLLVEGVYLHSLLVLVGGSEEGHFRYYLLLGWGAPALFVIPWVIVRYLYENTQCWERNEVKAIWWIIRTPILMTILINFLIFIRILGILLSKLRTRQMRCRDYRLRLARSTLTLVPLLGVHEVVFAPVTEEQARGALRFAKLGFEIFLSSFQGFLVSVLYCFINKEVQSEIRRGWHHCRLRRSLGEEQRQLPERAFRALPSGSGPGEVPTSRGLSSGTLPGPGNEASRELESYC
Kind of data set: cAMP accumulation assay, antagonism of a GIP-mediated cAMP response (50-80% of max). Particulars: for IC50: transiently transfected COS-7 cells. The format is cell-based. As for the experimental part: The day after, the cells were washed twice with Hepes buffered saline (HBS) buffer and incubated with HBS and 1 mM 3-isobutyl-1-methylxanthine (IBMX) for 30 min at 37° C. […] The HitHunter™ cAMP XS assay (DiscoveRx) was carried out according to the manufacturer's instructions.
On the technique in general: Cyclic AMP is a second messenger, typically raised through Gs and lowered through Gi signalling.

The conditions of data set [1]: pigs, previously showed; cited from earlier work.
For data set [2] the following is noted: humans, previously determined; cited from earlier work.
Data set [3] is described as follows: Solubility of linker analogues. The format is physicochemical. Particulars: read-out: Solubility, obtainable concentration.

Read-outs that look alike come from different tables or passages of the source. Numbered stars: 1 amine (or outer) side, 2 acyl side, 3 side chain; on linkers, the order of the positions; unused ones are H or OH. Side chains are listed from the residue outwards. Peptide text beside a SMILES is read from it. * marks the point of attachment. γGlu = O=C(O)[C@H](CCC(=O)[*:2])N[*:1]; Palmitoyl = CCCCCCCCCCCCCCCC(=O)*; βAla = NCCC(=O)O Some results are limits rather than exact numbers.

Broadly, the IC50 is the concentration at which inhibition is half-maximal. Consider `CC[C@H](C)[C@H](NC(=O)[C@H](CO)NC(=O)[C@H](Cc1ccc(O)cc1)NC(=O)[C@H](CC(=O)O)NC(=O)[C@H](CO)NC(=O)[C@@H](NC(=O)[C@H](Cc1ccccc1)NC(=O)[C@@H](NC(=O)CNC(=O)[C@@H](N)CCC(=O)O)[C@@H](C)O)[C@@H](C)CC)C(=O)N[C@@H](C)C(=O)N[C@@H](CCSC)C(=O)N[C@@H](CC(=O)O)C(=O)N[C@@H](CCCCN)C(=O)N[C@H](C(=O)N[C@@H](Cc1c[nH]cn1)C(=O)N[C@@H](CCC(N)=O)C(=O)N[C@@H](CCC(N)=O)C(=O)N[C@@H](CC(=O)O)C(=O)N[C@@H](Cc1ccccc1)C(=O)N[C@H](C(=O)N[C@@H](CC(N)=O)C(=O)N[C@@H](Cc1c[nH]c2ccccc12)C(=O)N[C@@H](CC(C)C)C(=O)N[C@@H](CC(C)C)C(=O)N[C@@H](C)C(=O)N[C@@H](CCC(N)=O)C(=O)N[C@@H](CCCCN)C(N)=O)C(C)C)[C@@H](C)CC` [hGIP(3-30)NH2, reference compound], for which the IC50 was 63.1 nM against human GIP receptor (cAMP antagonism log, given as log IC50 (negative sign), Table 1); 65 nM at human GIP receptor (cAMP antagonism nM (IC50, antagonistic potency), Table 1 and text). In addition, the “cAMP accumulation logIC50 ± SEM” value on human GIP receptor (given as log IC50 (negative sign), linker analogues, n=2, Table 5) is listed as −7.19 ± 0.10. The T1/2 in data set [1] and in data set [2] was 7.5 min throughout.
For `CCCCCCCCCCCCCCCC(=O)NCCC(=O)NCCCC[C@H](NC(=O)[C@@H](NC(=O)[C@H](CCCCN)NC(=O)[C@H](CC(=O)O)NC(=O)[C@H](CCSC)NC(=O)[C@H](C)NC(=O)[C@@H](NC(=O)[C@H](CO)NC(=O)[C@H](Cc1ccc(O)cc1)NC(=O)[C@H](CC(=O)O)NC(=O)[C@H](CO)NC(=O)[C@@H](NC(=O)[C@H](Cc1ccccc1)NC(=O)[C@@H](NC(=O)CNC(=O)[C@@H](N)CCC(=O)O)[C@@H](C)O)[C@@H](C)CC)[C@@H](C)CC)[C@@H](C)CC)C(=O)N[C@@H](CCC(N)=O)C(=O)N[C@@H](CCC(N)=O)C(=O)N[C@@H](CC(=O)O)C(=O)N[C@@H](Cc1ccccc1)C(=O)N[C@H](C(=O)N[C@@H](CC(N)=O)C(=O)N[C@@H](Cc1c[nH]c2ccccc12)C(=O)N[C@@H](CC(C)C)C(=O)N[C@@H](CC(C)C)C(=O)N[C@@H](C)C(=O)N[C@@H](CCC(N)=O)C(=O)N[C@@H](CCCCN)C(N)=O)C(C)C` [AT166, [hGIP(3-30)NH2[H18K]-C16/18+β-alanine]] (H-EGTFISDYSIAMDKIK([βAla-Palmitoyl])QQDFVNWLLAQK-NH2; N-terminus assumed), the “Fold change from GIP(3-30)NH2 (increase in potency)” value on human GIP receptor (Table 5) was determined as 2.9 fold. Moreover, the solubility in data set [3] was no more than 63.2 µM.
For `CCCCCCCCCCCCCCCC(=O)N[C@@H](CCC(=O)NCCCC[C@H](NC(=O)[C@@H](NC(=O)[C@H](CCCCN)NC(=O)[C@H](CC(=O)O)NC(=O)[C@H](CCSC)NC(=O)[C@H](C)NC(=O)[C@@H](NC(=O)[C@H](CO)NC(=O)[C@H](Cc1ccc(O)cc1)NC(=O)[C@H](CC(=O)O)NC(=O)[C@H](CO)NC(=O)[C@@H](NC(=O)[C@H](Cc1ccccc1)NC(=O)[C@@H](NC(=O)CNC(=O)[C@@H](N)CCC(=O)O)[C@@H](C)O)[C@@H](C)CC)[C@@H](C)CC)[C@@H](C)CC)C(=O)N[C@@H](CCC(N)=O)C(=O)N[C@@H](CCC(N)=O)C(=O)N[C@@H](CC(=O)O)C(=O)N[C@@H](Cc1ccccc1)C(=O)N[C@H](C(=O)N[C@@H](CC(N)=O)C(=O)N[C@@H](Cc1c[nH]c2ccccc12)C(=O)N[C@@H](CC(C)C)C(=O)N[C@@H](CC(C)C)C(=O)N[C@@H](C)C(=O)N[C@@H](CCC(N)=O)C(=O)N[C@@H](CCCCN)C(N)=O)C(C)C)C(=O)O` [AT164, [hGIP(3-30)NH2[H18K]-C16/18+y-glutamic acid]] (H-EGTFISDYSIAMDKIK([γGlu-Palmitoyl])QQDFVNWLLAQK-NH2; N-terminus assumed), the “Fold change from GIP(3-30)NH2 (increase in potency)” value on human GIP receptor (Table 5) came out at 6.3 fold. Besides, the solubility in data set [3] was no less than 200 µM.
